“Also recorded” adds a separate entry of the source. A value given as a limit tells only on which side of the number the result lay.

The nature of data set [1]: Water solubility, stepwise addition of water, classed by USP23. Format: physicochemical. As to the method: 3 mg of lenalidomide (Combi-Block, Inc. San Diego, CA, USA) and ribose-lenalidomide were each weighed and placed in a 1.5 mL Eppendorf tube, 0.03 mL of water was added thereto, and then the mixture was vortexed for one minute and then centrifuged at 15,000 rpm for 1 minute, and an undissolved compound was precipitated. When the precipitated compound was visible, 0.03 mL of water was added, and the above process was repeated.
The solubility was determined by Table 1 as defined in United States Pharmacopeia 23 (USP23).

For the next data set, the system named is multiple myeloma. As to conditions: combination of lenalidomide and dexamethasone; cited from earlier work.
In data set [2] the test system is choroidal neovascularization lesion. The data set is described as follows: Macular degeneration treatment effect, laser-induced mouse CNV model (wet AMD). Format: in vivo. The note with it: for CNV lesion, intravitreal administration: once immediately after laser irradiation, fluorescent staining of blood vessels. As to the method: It was intended to confirm the healing efficacy of a lesion in a mouse CNV model, which is a wet senile macular degeneration (wet AMD) model.
To this end, five C57BL/6 (Koatech, Korea) male mice (aged 7 weeks) were used, and after 1 week of acclimation, the 8-week-old mice were anesthetized using ketamine hydrochloride (100 mg/kg, I.P.), and a drop of Mydriacyl (tropicamide) eye drops was placed on the right eye to induce mydriasis. After 3 minutes, the mouse was placed on a stand attached to a slit lamp, and a coverslip was put on the right eye to serve as a contact lens. After illuminating the optic nerve head using the slip lamp, four laser spots (200 mW, 50 μm spot size, 100-ms duration) around the optic nerve head were irradiated using a 532 nm laser device (Irdiex Oculight Tx, USA) attached to the slit lamp.
After forming a choroidal neovascularization lesion as described above, a solution prepared by dissolving ribose-lenalidomide in PBS was administered to the lesion. For intravitreal administration, 1.5 μL of the solution with a concentration of 0.2 μg/mL was administered once immediately after laser irradiation using a 25 μL Hamilton syringe with a 33G needle. Meanwhile, ribose-lenalidomide was dissolved in PBS to have a concentration of 2 mg/mL, prepared in the form of eye drops, administered four times a day, and then 7 days or 14 days after administration, efficacy was confirmed through fluorescent staining of blood vessels.
Fluorescent staining was performed using Heidelberg Spectralis HRA+OCT device (Heidelberg, Germany) equipment, the mouse was anesthetized using ketamine hydrochloride (100 mg/kg, I.P.) and xylazine (10 mg/kg, I.P.), a drop of Mydriacyl (tropicamide) eye drops was placed on the right eye to induce mydriasis, 0.05 mL of 10% fluorescite (Alcon, USA) was administered via I.P. administration to stain blood vessels. Fluorescent images were taken 10 minutes after fluorescite injection.

Another data set has as its system MM.1S cells. The data set is described as follows: Tumor cell killing effect, CCK analysis. Format: cell-based, human. The note with it: 0 to 10 μM, 3 days, dissolved in DMSO or D.W. Here is the method:
To this end, a human multiple myeloma cell line, MM.1S (CRL-2974), was purchased from the American Type Culture Collection (ATCC, Manassas, VA, USA), and incubated using a RPMI1640 medium (Corning, MD, USA) supplemented with a 10% bovine fetal serum (Corning, MD, USA), 100 U/mL penicillin (Corning, MD, USA), and 100 μg/mL streptomycin (Corning, MD, USA) at 37° C. in a 5% CO2 incubator for 24 hours. The cells were seeded at 1×10^4 cells/well in a 96-well plate, incubated for 24 hours, further incubated for 3 days after treatment with 0, 0.005, 0.014, 0.041, 0.123, 0.37, 1.111, 3.333, or 10 μM of ribose-lenalidomide dissolved in DMSO or D.W., and then analyzed using a CCK analysis kit (Dojindo, Japan) according to the manufacturer's instructions.

A further data set has as its target T1, cereblon (CRBN) protein (Homo sapiens, UniProt Q96SW2).
T1 construct: FLAG; purchased BPS Bioscience #79770
The data set is described as follows: CRBN binding affinity, Alpha assay of competitive inhibition of CRBN-dBET1 binding. As to conditions: compared with the base lenalidomide or pomalidomide. The text has this:
An immunomodulatory amide-type compound such as lenalidomide is known to act by binding to the cereblon (CRBN) protein. Therefore, the binding affinity of ribose-lenalidomide for the cereblon (CRBN) protein was compared with that of its base, lenalidomide (Combi-Block, Inc. San Diego, CA, USA), for the cereblon (CRBN) protein.

A further data set concerns the target T2, Aiolos (Homo sapiens, UniProt Q96SW2+Q9UKT9).
T2 construct: endogenous in cells; host or cells: MM.1S (ATCC CRL-2974)
The data set is described as follows: Aiolos degradation in MM.1S cells, western blot. Format: cell-based. As to conditions: 1 μM or 10 μM, 24 hours. As to the method: (§1) It is known that a thalidomide-based compound binds to an E3 ligase, cereblon (CRBN), and decomposes transcription factors Aiolos and Ikaros as substrates, thereby regulating the function of immune cells. Therefore, to confirm whether ribose-lenalidomide still maintains its immunomodulatory function, the Aiolos and Ikaros degradation effect was compared with its base, lenalidomide.
(§2) After seeding the cells and incubating the cells for 24 hours, each compound was further incubated for 24 hours after treatment with 1 μM or 10 μM of each compound. The cells were lysed in a RIPA buffer containing a protease inhibitor cocktail (Thermo Fisher Scientific) and centrifuged at 14,000 rpm for 15 minutes at 4° C., thereby obtaining a cell extract. The cell extract was loaded at the same amount, separated using SDS-PAGE, and transferred to a PVDF membrane. The protein-transferred membrane was blocked using skim milk, subjected to o/n incubation with a primary antibody at 4° C., and incubated with an HRP-attached secondary antibody at 4° C. for 1 hour. The cells were washed with TBS-T three times between steps. Detection was performed by applying a chemiluminescence reagent (Thermo Fisher Scientific), and confirmation was performed using Chemidoc (iBright CL1000, Invitrogen, CA, USA).

The next data set has as its target T3, Ikaros (Homo sapiens, UniProt Q13422+Q96SW2).
T3 construct: endogenous in cells; host or cells: MM.1S (ATCC CRL-2974)
The data set is described as follows: Ikaros degradation in MM.1S cells, western blot. In kind it is cell-based. As to conditions: 1 μM or 10 μM, 24 hours. As to the method:
as §1, §2

A further data set addresses T4, CK1α (Homo sapiens, UniProt P48729+Q96SW2).
T4 construct: endogenous in cells; host or cells: MM.1S (ATCC CRL-2974)
The data set is described as follows: CK1α degradation in MM.1S cells, western blot. In kind it is cell-based. As to conditions: 1 μM or 10 μM, 24 hours. Here is the method:
as §2

The target of a further data set is T5, SALL4 (Homo sapiens, UniProt Q96SW2+Q9UJQ4).
T5 construct: endogenous in cells; host or cells: Tera-1 (ATCC HTB-105)
The data set is described as follows: SALL4 degradation in Tera-1 cell line (HTB-105), western blot. In kind it is cell-based. As to conditions: 1 or 10 μM, compared with the base compound. Here is the method: The cell extract was loaded at the same amount, separated using SDS-PAGE, and transferred to a PVDF membrane. The protein-transferred membrane was blocked using skim milk, subjected to o/n incubation with a primary antibody at 4° C., and incubated with an HRP-attached secondary antibody at 4° C. for 1 hour. The cells were washed with TBS-T three times between steps. Detection was performed by applying a chemiluminescence reagent (Thermo Fisher Scientific), and confirmation was performed using Chemidoc (iBright CL1000, Invitrogen, CA, USA).

On to `Nc1cccc2c1CN(C1CCC(=O)NC1=O)C2=O` (racemic) [lenalidomide, (RS)-3-(4-amino-1-oxo-1,3-dihydro-2H-isoindol-2-yl)piperidine-2,6-dione, reference compound], for which the “water solubility in words” value in [1] (D.W.) is “completely insoluble in water; also recorded: barely dissolved in D.W”. For the same molecule, in the data set with multiple myeloma, the disease-free survival period was 13.4 months and the overall survival period is on record as 38 months.

For `O=C1CCC(N2Cc3c(/N=C/[C@H](O)[C@@H](O)[C@H](O)[C@H](O)CO)cccc3C2=O)C(=O)N1` (stereo partly drawn) [glucose-lenalidomide (type 1)], the “CNV lesion, intravitreal administration” value in data set [2] is listed as “macular degeneration treatment effect was confirmed”.

For the molecule `O=C1CCC(N2C(=O)c3cccc(NC[C@H](O)[C@@H](O)[C@H](O)[C@H](O)CO)c3C2=O)C(=O)N1` (stereo partly drawn) [glucose-pomalidomide (type 2)], in the data set with MM.1S cells, the “tumor cell killing effect / viability of MM.1S cells” value is listed as “not significantly reduced”.

As to `O=C1CCC(N2Cc3c(/N=C/[C@H](O)[C@H](O)[C@H](O)CO)cccc3C2=O)C(=O)N1` (stereo partly drawn) [ribose-lenalidomide (type 1)], in data set [1] (water), the “solubility term based on USP 23” value is reported as “freely soluble”. The molecule also registered a solubility at 1 min in data set [1] (water, thermodynamic from solid, D.W., no visible precipitate after vortexing and centrifugation) not below 100 mg/mL. Moreover, the CRBN binding affinity result at cereblon (CRBN) protein is reported as “improved binding affinity”. In addition, in the data set on MM.1S cells, the “tumor cell killing effect / viability of MM.1S cells” value was “effective in killing MM.1S cells”. The Aiolos degradation effect result on Aiolos is given as “almost similar to lenalidomide”. Moreover, at Ikaros, the Ikaros degradation effect result is reported as “almost similar to lenalidomide”. Further, at CK1α, the CK1α degradation effect entry was “almost similar to lenalidomide”. In addition, the “SALL4 degradation effect (teratogenic side effect)” value on SALL4 is listed as “inhibited SALL4 degradation effect compared to lenalidomide”. The “CNV lesion, eye drop administration” value in data set [2] (eye drops 2 mg/mL in PBS, four times a day, 7 or 14 days) is reported as “distinct decrease in the lesion”. The “CNV lesion, intravitreal administration” value in data set [2] is given as “distinct decrease in the lesion”.

(Values after US20250197438A1, “IMMUNOREGULATORY AMIDE DERIVATIVE WITH IMPROVED MATERIAL PROPERTIES” (AEVIS BIO, INC., priority 2021, published 2025).)
